In patent publication US6534289B1, “Nucleic acids encoding mGLuR/CaR chimera” (NPS Pharmaceuticals, Inc., priority 1995, dated 2003):

Legend:
human CaR = target: T1, human CaR (Homo sapiens, UniProt P41180); assay: Xenopus oocyte voltage clamp, Cl− currents, CaR; format: cell-based
T1 construct: expressed in transfected cells; host or cells: Xenopus laevis oocytes injected with in vitro transcribed RNA from phPCaR4.0
T1 sequence (P41180 20-1078): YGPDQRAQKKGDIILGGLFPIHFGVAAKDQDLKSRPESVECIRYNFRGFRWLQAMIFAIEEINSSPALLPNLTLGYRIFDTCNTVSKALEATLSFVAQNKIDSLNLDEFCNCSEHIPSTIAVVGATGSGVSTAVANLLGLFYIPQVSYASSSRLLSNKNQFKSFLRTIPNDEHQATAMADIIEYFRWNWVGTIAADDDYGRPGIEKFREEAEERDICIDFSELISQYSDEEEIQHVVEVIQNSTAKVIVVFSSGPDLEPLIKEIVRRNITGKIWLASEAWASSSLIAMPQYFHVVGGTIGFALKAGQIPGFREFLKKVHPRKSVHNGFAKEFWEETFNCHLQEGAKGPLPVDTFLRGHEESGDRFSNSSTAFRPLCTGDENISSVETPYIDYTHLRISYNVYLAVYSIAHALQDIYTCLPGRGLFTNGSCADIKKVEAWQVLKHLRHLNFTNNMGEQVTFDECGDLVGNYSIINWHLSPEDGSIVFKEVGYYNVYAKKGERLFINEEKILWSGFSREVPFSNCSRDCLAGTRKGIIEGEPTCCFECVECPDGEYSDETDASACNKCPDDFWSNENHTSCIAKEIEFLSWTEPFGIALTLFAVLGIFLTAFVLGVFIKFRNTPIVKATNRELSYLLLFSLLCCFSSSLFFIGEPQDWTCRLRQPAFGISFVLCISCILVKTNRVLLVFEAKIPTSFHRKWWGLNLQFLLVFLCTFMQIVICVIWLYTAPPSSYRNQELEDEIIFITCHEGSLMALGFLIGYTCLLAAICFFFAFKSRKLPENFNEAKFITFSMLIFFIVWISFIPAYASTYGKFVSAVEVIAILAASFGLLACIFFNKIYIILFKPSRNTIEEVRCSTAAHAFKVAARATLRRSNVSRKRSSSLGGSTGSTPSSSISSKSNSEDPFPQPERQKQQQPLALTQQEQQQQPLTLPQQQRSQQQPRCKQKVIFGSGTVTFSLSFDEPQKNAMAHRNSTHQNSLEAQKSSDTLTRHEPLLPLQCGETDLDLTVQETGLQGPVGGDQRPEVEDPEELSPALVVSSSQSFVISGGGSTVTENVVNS

[1] = test system: HEK293 cells expressing pCEPCaR/R1; assay: HEK293/pCEPCaR/R1 Fura assay; format: cell-based, human; details: fura-2 loaded stably transfected HEK293 cells, FIG. 9
Procedure: The DNA from plasmid pCaR/R1 was digested and cloned into the commercially available episomal mammalian expression vector, pCEP4 (Invitrogen), using the restriction enzymes Kpn I and Not I. The ligation products were transfected into DH5a cells which had been made competent for DNA transformation. […] A clone was selected from the colonies which grew. This clone, pCEPCaR/R1 was characterized by restriction enzyme digestion.
Human embryonic kidney cells (293, ATCC, CRL 1573) were grown in a routine manner. Cells were plated in 10 cm cell-culture plates in Dulbecco's modified Eagle's medium (D-MEM) containing 10% fetal calf serum (FCS) and 1×Penicillin-Streptomycin (PS, Life Technologies) so that they would be ˜70% confluent after an overnight incubation. […]
Measurements of intracellular calcium release in response to increases in extracellular calcium is quantitated using the Fura assay (Parks et al. 1989). […] Measurements of fluorescence are performed at 37° C. with constant stirring using a custom-built spectrofluorimeter (Biomedical Instrumentation Group, University of Pennsylvania). […] To calibrate fluorescence signals, digitonin (Sigma, St. Louis, Mo.; catalog # D 5628; 50 μg/ml, final) is added to obtain Fmax, and the apparent Fmin is determined by adding EGTA (10 mM, final) and Tris base (pH ˜10, final). […]

mGluR1/CaR = target: T2, mGluR1/CaR (UniProt P23385+P41180); assay: Xenopus oocyte voltage clamp, Cl− currents, mGluR1/CaR chimera; format: cell-based, rat mGluR1 / human calcium receptor; details: FIG. 6
T2 construct: expressed in transfected cells; host or cells: Xenopus laevis oocytes injected with in vitro transcribed RNA
T2 sequence (P23385+P41180 fused): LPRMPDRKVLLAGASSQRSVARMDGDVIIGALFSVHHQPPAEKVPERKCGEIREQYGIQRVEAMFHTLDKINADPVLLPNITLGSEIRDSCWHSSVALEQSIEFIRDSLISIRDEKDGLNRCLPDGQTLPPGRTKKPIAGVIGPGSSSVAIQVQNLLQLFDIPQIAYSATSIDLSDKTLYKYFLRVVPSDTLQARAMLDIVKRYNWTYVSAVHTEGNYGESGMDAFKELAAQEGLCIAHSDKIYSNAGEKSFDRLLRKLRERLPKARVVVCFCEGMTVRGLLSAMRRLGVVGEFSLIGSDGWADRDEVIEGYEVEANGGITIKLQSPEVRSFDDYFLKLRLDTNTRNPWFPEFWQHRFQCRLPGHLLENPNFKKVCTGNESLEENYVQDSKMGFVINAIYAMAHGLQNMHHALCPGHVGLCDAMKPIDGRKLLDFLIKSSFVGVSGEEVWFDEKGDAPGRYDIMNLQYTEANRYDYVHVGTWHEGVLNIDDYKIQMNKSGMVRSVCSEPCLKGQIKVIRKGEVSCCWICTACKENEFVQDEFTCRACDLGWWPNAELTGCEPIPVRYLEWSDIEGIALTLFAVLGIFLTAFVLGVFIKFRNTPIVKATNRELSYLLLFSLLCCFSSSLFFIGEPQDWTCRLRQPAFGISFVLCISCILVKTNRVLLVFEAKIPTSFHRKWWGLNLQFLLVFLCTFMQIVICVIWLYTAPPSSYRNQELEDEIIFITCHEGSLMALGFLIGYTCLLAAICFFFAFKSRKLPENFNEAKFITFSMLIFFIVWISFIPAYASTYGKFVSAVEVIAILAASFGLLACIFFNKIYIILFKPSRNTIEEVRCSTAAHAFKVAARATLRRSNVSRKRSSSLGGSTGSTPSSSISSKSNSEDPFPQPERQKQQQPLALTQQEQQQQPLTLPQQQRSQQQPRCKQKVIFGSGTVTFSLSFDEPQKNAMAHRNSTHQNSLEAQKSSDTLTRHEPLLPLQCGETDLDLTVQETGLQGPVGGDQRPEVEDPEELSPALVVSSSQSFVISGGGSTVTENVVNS

## [Ca+2] [calcium]
Human CaR; Xenopus oocyte, increasing extracellular calcium, FIG. 7
  activation of CaR, response amplitudes (Cl− currents in response to increases in intracellular Ca^2+): activation
[1]
  intracellular calcium: increases in intracellular calcium

## N[C@@H](CCC(=O)O)C(=O)O [l-glutamate]
Human CaR; Xenopus oocytes injected with human CaR RNA, FIG. 8B
  Cl− current: elicits oscillatory increases in Cl− current

## N[C@@H](Cn1oc(=O)[nH]c1=O)C(=O)O [quisqualate]
mGluR1/CaR
  activation of mGluR1/CaR as measured by Cl− currents generated in response to the release of intracellular Ca^2+: activation
